Measured values reported in the NIST ThermoML archive (doi:10.1016/j.fluid.2010.10.028).

Test: xn = mol fraction of the nth substance listed
Conditions: Liquid, Vibrating tube method

CC(C)=O [acetone] + CCCCCCC
Conditions	mass density [kg/m3]
347.61 K, 99820 kPa, x1 = 0.7024	766.18
347.61 K, 104810 kPa, x1 = 0.7024	768.98
347.61 K, 109800 kPa, x1 = 0.7024	771.73
347.61 K, 114810 kPa, x1 = 0.7024	774.41
347.61 K, 119820 kPa, x1 = 0.7024	777.02
347.61 K, 124830 kPa, x1 = 0.7024	779.56
347.61 K, 129810 kPa, x1 = 0.7024	782.01
347.62 K, 1020 kPa, x1 = 0.801	689
347.62 K, 1220 kPa, x1 = 0.4	705.05
347.62 K, 1220 kPa, x1 = 0.8992	705.05
347.62 K, 4860 kPa, x1 = 0.801	695.13
347.62 K, 5030 kPa, x1 = 0.4	711.05
347.62 K, 5030 kPa, x1 = 0.8992	711.05
347.62 K, 9870 kPa, x1 = 0.801	702.45
347.62 K, 10010 kPa, x1 = 0.4	718.22
347.62 K, 10010 kPa, x1 = 0.8992	718.22
347.62 K, 14850 kPa, x1 = 0.801	709.08
347.62 K, 15000 kPa, x1 = 0.4	724.83
347.62 K, 15000 kPa, x1 = 0.8992	724.83
347.62 K, 19850 kPa, x1 = 0.801	715.23
347.62 K, 24850 kPa, x1 = 0.801	720.94
347.62 K, 29860 kPa, x1 = 0.801	726.31
347.62 K, 34950 kPa, x1 = 0.4	746.98
347.62 K, 34950 kPa, x1 = 0.8992	746.98
347.62 K, 39850 kPa, x1 = 0.801	736.15
347.62 K, 39940 kPa, x1 = 0.4	751.76
347.62 K, 39940 kPa, x1 = 0.8992	751.76
347.62 K, 44930 kPa, x1 = 0.4	756.3
347.62 K, 44930 kPa, x1 = 0.8992	756.3
347.62 K, 49910 kPa, x1 = 0.4	760.61
347.62 K, 49910 kPa, x1 = 0.8992	760.61
347.62 K, 54840 kPa, x1 = 0.801	749.08
347.62 K, 54890 kPa, x1 = 0.4	764.72
347.62 K, 54890 kPa, x1 = 0.8992	764.72
347.62 K, 59880 kPa, x1 = 0.4	768.69
347.62 K, 59880 kPa, x1 = 0.8992	768.69
347.62 K, 64870 kPa, x1 = 0.4	772.47
347.62 K, 64870 kPa, x1 = 0.8992	772.47
347.62 K, 69850 kPa, x1 = 0.4	776.15
347.62 K, 69850 kPa, x1 = 0.8992	776.15
347.62 K, 74830 kPa, x1 = 0.4	779.64
347.62 K, 74830 kPa, x1 = 0.8992	779.64
347.62 K, 74890 kPa, x1 = 0.801	763.9
347.62 K, 79820 kPa, x1 = 0.4	783.06
347.62 K, 79820 kPa, x1 = 0.8992	783.06
347.62 K, 79870 kPa, x1 = 0.801	767.26
347.62 K, 84800 kPa, x1 = 0.4	786.42
347.62 K, 84800 kPa, x1 = 0.8992	786.42
347.62 K, 89780 kPa, x1 = 0.4	789.6
347.62 K, 89780 kPa, x1 = 0.8992	789.6
347.62 K, 94760 kPa, x1 = 0.4	792.68
347.62 K, 94760 kPa, x1 = 0.8992	792.68
347.62 K, 99740 kPa, x1 = 0.4	795.68
347.62 K, 99740 kPa, x1 = 0.8992	795.68
347.62 K, 99810 kPa, x1 = 0.801	779.62
347.62 K, 104710 kPa, x1 = 0.4	798.57
347.62 K, 104710 kPa, x1 = 0.8992	798.57
347.62 K, 109700 kPa, x1 = 0.4	801.41
347.62 K, 109700 kPa, x1 = 0.8992	801.41
347.62 K, 114660 kPa, x1 = 0.4	804.17
347.62 K, 114660 kPa, x1 = 0.8992	804.17
347.62 K, 119630 kPa, x1 = 0.4	806.86
347.62 K, 119630 kPa, x1 = 0.8992	806.86
347.62 K, 124610 kPa, x1 = 0.4	809.5
347.62 K, 124610 kPa, x1 = 0.8992	809.5
347.62 K, 124830 kPa, x1 = 0.801	793.29
347.62 K, 129570 kPa, x1 = 0.4	812.05
347.62 K, 129570 kPa, x1 = 0.8992	812.05
347.63 K, 1030 kPa, x1 = 0.492	657.71
347.63 K, 1030 kPa, x1 = 0.611	666.96
347.63 K, 4850 kPa, x1 = 0.492	663.76
347.63 K, 4870 kPa, x1 = 0.611	673.09
347.63 K, 9850 kPa, x1 = 0.492	670.93
347.63 K, 9870 kPa, x1 = 0.611	680.36
347.63 K, 14850 kPa, x1 = 0.492	677.45
347.63 K, 19850 kPa, x1 = 0.492	683.45
347.63 K, 19980 kPa, x1 = 0.4	730.92
347.63 K, 19980 kPa, x1 = 0.8992	730.92
347.63 K, 24860 kPa, x1 = 0.492	689
347.63 K, 24960 kPa, x1 = 0.4	736.6
347.63 K, 24960 kPa, x1 = 0.8992	736.6
347.63 K, 29860 kPa, x1 = 0.492	694.2
347.63 K, 29960 kPa, x1 = 0.4	741.95
347.63 K, 29960 kPa, x1 = 0.8992	741.95
347.63 K, 34850 kPa, x1 = 0.492	699.05
347.63 K, 34850 kPa, x1 = 0.801	731.37
347.63 K, 39860 kPa, x1 = 0.492	703.65
347.63 K, 44850 kPa, x1 = 0.801	740.65
347.63 K, 44870 kPa, x1 = 0.492	708.02
347.63 K, 49830 kPa, x1 = 0.492	712.11
347.63 K, 49850 kPa, x1 = 0.801	744.95
347.63 K, 54850 kPa, x1 = 0.492	716.07
347.63 K, 59840 kPa, x1 = 0.801	752.99
347.63 K, 59850 kPa, x1 = 0.492	719.82
347.63 K, 64820 kPa, x1 = 0.801	756.73
347.63 K, 64830 kPa, x1 = 0.492	723.43
347.63 K, 64920 kPa, x1 = 0.611	733.74
347.63 K, 69910 kPa, x1 = 0.801	760.44
347.63 K, 69920 kPa, x1 = 0.611	737.26
347.63 K, 69930 kPa, x1 = 0.492	726.98
347.63 K, 74910 kPa, x1 = 0.492	730.29
347.63 K, 79900 kPa, x1 = 0.492	733.48
347.63 K, 84860 kPa, x1 = 0.801	770.5
347.63 K, 84880 kPa, x1 = 0.492	736.56
347.63 K, 89840 kPa, x1 = 0.801	773.63
347.63 K, 89860 kPa, x1 = 0.492	739.56
347.63 K, 94820 kPa, x1 = 0.801	776.66
347.63 K, 104780 kPa, x1 = 0.801	782.49
347.63 K, 104800 kPa, x1 = 0.492	747.95
347.63 K, 109760 kPa, x1 = 0.611	761.37
347.63 K, 109760 kPa, x1 = 0.801	785.29
347.63 K, 109770 kPa, x1 = 0.492	750.58
347.63 K, 114860 kPa, x1 = 0.801	788.08
347.63 K, 119840 kPa, x1 = 0.801	790.72
347.63 K, 124840 kPa, x1 = 0.492	758.13
347.63 K, 124840 kPa, x1 = 0.611	769.09
347.63 K, 129860 kPa, x1 = 0.492	760.49
347.63 K, 129860 kPa, x1 = 0.801	795.81
347.64 K, 14870 kPa, x1 = 0.611	686.95
347.64 K, 19860 kPa, x1 = 0.611	693.03
347.64 K, 24870 kPa, x1 = 0.611	698.69
347.64 K, 29860 kPa, x1 = 0.611	703.93
347.64 K, 34870 kPa, x1 = 0.611	708.89
347.64 K, 39870 kPa, x1 = 0.611	713.55
347.64 K, 44850 kPa, x1 = 0.611	717.99
347.64 K, 49850 kPa, x1 = 0.611	722.19
347.64 K, 54850 kPa, x1 = 0.611	726.18
347.64 K, 59940 kPa, x1 = 0.611	730.09
347.64 K, 74910 kPa, x1 = 0.611	740.63
347.64 K, 79900 kPa, x1 = 0.611	743.88
347.64 K, 84880 kPa, x1 = 0.611	747.05
347.64 K, 89870 kPa, x1 = 0.611	750.1
347.64 K, 94840 kPa, x1 = 0.611	753.04
347.64 K, 94850 kPa, x1 = 0.492	742.44
347.64 K, 99820 kPa, x1 = 0.492	745.23
347.64 K, 99820 kPa, x1 = 0.611	755.91
347.64 K, 104780 kPa, x1 = 0.611	758.67
347.64 K, 114850 kPa, x1 = 0.492	753.18
347.64 K, 114870 kPa, x1 = 0.611	764.04
347.64 K, 119840 kPa, x1 = 0.611	766.59
347.64 K, 119860 kPa, x1 = 0.492	755.69
347.64 K, 129860 kPa, x1 = 0.611	771.5
357.54 K, 1050 kPa, x1 = 0.7024	664.83
357.54 K, 4810 kPa, x1 = 0.7024	671.47
357.54 K, 9820 kPa, x1 = 0.7024	679.43
357.54 K, 14810 kPa, x1 = 0.7024	686.58
357.54 K, 14860 kPa, x1 = 0.611	677.52
357.54 K, 19810 kPa, x1 = 0.7024	693.14
357.54 K, 24800 kPa, x1 = 0.7024	699.18
357.54 K, 29900 kPa, x1 = 0.7024	704.93
357.54 K, 34880 kPa, x1 = 0.7024	710.21
357.54 K, 39870 kPa, x1 = 0.7024	715.16
357.54 K, 44860 kPa, x1 = 0.7024	719.83
357.54 K, 49860 kPa, x1 = 0.7024	724.29
357.54 K, 54850 kPa, x1 = 0.7024	728.52
357.54 K, 59830 kPa, x1 = 0.7024	732.55
357.54 K, 64830 kPa, x1 = 0.7024	736.42
357.54 K, 69820 kPa, x1 = 0.7024	740.13
357.54 K, 74790 kPa, x1 = 0.7024	743.68
357.54 K, 84760 kPa, x1 = 0.7024	750.39
357.54 K, 94820 kPa, x1 = 0.7024	756.74
357.55 K, 1070 kPa, x1 = 0.611	655.88
357.55 K, 1080 kPa, x1 = 0.492	647.12
357.55 K, 1300 kPa, x1 = 0.4	692.98
357.55 K, 1300 kPa, x1 = 0.8992	692.98
357.55 K, 4850 kPa, x1 = 0.492	653.64
357.55 K, 4860 kPa, x1 = 0.611	662.51
357.55 K, 5030 kPa, x1 = 0.4	699.4
357.55 K, 5030 kPa, x1 = 0.8992	699.4
357.55 K, 9850 kPa, x1 = 0.492	661.43
357.55 K, 9860 kPa, x1 = 0.611	670.41
357.55 K, 10030 kPa, x1 = 0.4	707.18
357.55 K, 10030 kPa, x1 = 0.8992	707.18
357.55 K, 14850 kPa, x1 = 0.492	668.43
357.55 K, 15010 kPa, x1 = 0.4	714.27
357.55 K, 15010 kPa, x1 = 0.8992	714.27
357.55 K, 19840 kPa, x1 = 0.492	674.79
357.55 K, 19870 kPa, x1 = 0.611	684.02
357.55 K, 20010 kPa, x1 = 0.4	720.81
357.55 K, 20010 kPa, x1 = 0.8992	720.81
357.55 K, 24840 kPa, x1 = 0.492	680.72
357.55 K, 24850 kPa, x1 = 0.611	689.97
